Values quoted from earlier work, collected in patent US6939987B2, “Method for producing Aspartame derivative, method for purifying the same, crystals thereof and uses of the same” (Ajinomoto Co., Inc., priority 1999, dated 2005).

Settings: relative to sucrose; reported in International Patent Publication WO94/11391

Q: For `COC(=O)[C@H](Cc1ccccc1)NC(=O)[C@H](CC(=O)O)NCCC(C)(C)C` [N-[N-(3,3-dimethylbutyl)-L-α-aspartyl]-L-phenylalanine 1-methyl ester], which sweetening potency is on record?
A: The sweetening potency was 10000 times that of sucrose.
